We go through twelve compounds from ChEMBL document CHEMBL1201862, “PubChem BioAssay data set” (2004).

Test systems include 786-0; CCRF-CEM; DLD-1; EKVX; HCC 2998; HOP-62; K562; KM-20L2; KM12; LOX IMVI; MOLT-4; SF-268; SF-295; SK-MEL-2; SK-OV-3; SNB-19; SR.
Common to all, as to test: growth of human tumour cells (NCI), 48 h

Each structure is given as a SMILES string.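 The compound was tested at five concentrations on cells cultured in 96-well plates, with a 48-hour exposure period. Abbreviation: GI50, concentration required for 50% inhibition of growth.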 The source made the active and inactive calls. No stated cut-off is given here; in the data, active = GI50 up to about 1.1 µM and inactive = higher. Some results are limits rather than exact numbers.

As for `COc1c(OC(C)=O)cc2c(OC(C)=O)c1CC(C)CC(OC)C(O)C(C)/C=C(\C)C(OC(N)=O)C(OC)/C=C\C=C(/C)C(=O)N2` (stereo unspecified), the GI50 was > 81.3 µM (inactive) in the assay with 786-0; > 53.5 µM (inactive) in the assay with CCRF-CEM; > 49.8 µM (inactive) with DLD-1; > 100 µM (inactive) with EKVX; 36.5 µM (inactive) in the assay on HCC 2998; > 100 µM (inactive) in the assay with HOP-62. Further, the GI50 with K562 was > 26.3 µM (inactive); in the assay on KM-20L2 it was > 62.1 µM (inactive); in the assay on KM12, > 100 µM (inactive); in the assay with LOX IMVI, > 100 µM (inactive); with MOLT-4, > 27 µM (inactive); with SF-268, > 100 µM (inactive). In addition, the GI50 in the assay on SF-295 was > 100 µM (inactive); in the assay with SK-MEL-2, > 100 µM (inactive); with SK-OV-3 it was > 100 µM (inactive); with SNB-19, > 100 µM (inactive); with SR, > 44.2 µM (inactive).
As for `CCOC(=O)C1C(=O)c2ccccc2CN1Cc1ccccc1` (stereo unspecified), the GI50 with 786-0, with CCRF-CEM, in the assay on DLD-1, in the assay with EKVX, in the assay with HCC 2998 and with HOP-62 was > 100 µM (inactive) in each case. The GI50 with K562, in the assay with KM-20L2, in the assay with KM12, with LOX IMVI, with MOLT-4 and with SF-268 was > 100 µM (inactive) each time. Also, the GI50 in the assay on SF-295, in the assay with SK-MEL-2, in the assay with SK-OV-3, with SNB-19 and in the assay with SR was > 100 µM (inactive) each time.
With `CN(C)CN(C)c1nc(N(C)C)nc(N(C)CN(C)C)n1`, the GI50 with 786-0 is 34.4 µM (inactive); in the assay on CCRF-CEM it was 25.7 µM (inactive); in the assay on DLD-1 it was 42.7 µM (inactive); with EKVX it was > 100 µM (inactive); with HCC 2998, > 100 µM (inactive); with HOP-62 it was > 100 µM (inactive). The GI50 with K562 is 30.8 µM (inactive); with KM-20L2 it was 74.5 µM (inactive); with KM12, > 100 µM (inactive); in the assay on LOX IMVI, 22.9 µM (inactive); in the assay on MOLT-4 it was 26.2 µM (inactive); with SF-268 it was 51.6 µM (inactive). Besides, the GI50 is > 100 µM (inactive) with SF-295; 20.9 µM (inactive) with SK-MEL-2; > 100 µM (inactive) in the assay on SK-OV-3; > 100 µM (inactive) in the assay on SNB-19; 24.4 µM (inactive) in the assay with SR.
For the compound `Cc1ccc(Nc2nc(C)c(C(/C=C/c3ccc(/C=C/C(=N/NC(=O)C[n+]4ccccc4)c4sc(Nc5ccc(C)cc5[N+](=O)[O-])nc4C)cc3)=N\NC(=O)C[n+]3ccccc3)s2)c([N+](=O)[O-])c1`, the GI50 was > 100 µM (inactive) in the assay with 786-0; 32.3 µM (inactive) in the assay on CCRF-CEM; 71.3 µM (inactive) with DLD-1; 78.3 µM (inactive) with EKVX; > 100 µM (inactive) with HCC 2998; > 100 µM (inactive) with HOP-62. In addition, the GI50 is 81.3 µM (inactive) in the assay on K562; > 100 µM (inactive) with KM-20L2; > 100 µM (inactive) with KM12; 73.3 µM (inactive) in the assay with LOX IMVI; 76.7 µM (inactive) with MOLT-4; > 100 µM (inactive) with SF-268. Besides, the GI50 in the assay on SF-295 was > 100 µM (inactive); in the assay on SK-MEL-2, > 100 µM (inactive); with SK-OV-3, > 100 µM (inactive); with SNB-19 it was > 100 µM (inactive); with SR, 67.3 µM (inactive).
As to `CCOCc1cc(=O)c2cc3c(cc2o1)OC(C)(C)CC3`, the GI50 in the assay with 786-0, in the assay with CCRF-CEM, with DLD-1, with EKVX, with HCC 2998 and in the assay on HOP-62 was > 100 µM (inactive) in each case. For the same compound, the GI50 with K562 was 97.5 µM (inactive); in the assay on KM-20L2 it was > 100 µM (inactive); with KM12, > 100 µM (inactive); in the assay on LOX IMVI, > 100 µM (inactive); with MOLT-4, 55.5 µM (inactive); with SF-268, > 100 µM (inactive). Further, the GI50 in the assay on SF-295 was 93.8 µM (inactive); with SK-MEL-2 it was > 100 µM (inactive); in the assay on SK-OV-3, > 100 µM (inactive); in the assay on SNB-19 it was > 100 µM (inactive); in the assay with SR it was 72.3 µM (inactive).
Regarding `O=C(O)/C(Cl)=C(\Cl)C(=O)Nc1ccccc1`, the GI50 in the assay with 786-0 is > 100 µM (inactive); in the assay on CCRF-CEM, 69.3 µM (inactive); with DLD-1 it was > 100 µM (inactive); in the assay on EKVX it was > 100 µM (inactive); with HCC 2998 it was > 100 µM (inactive); in the assay with HOP-62, > 100 µM (inactive). Further, the GI50 with K562, in the assay with KM-20L2, with KM12, in the assay on LOX IMVI, in the assay with MOLT-4 and with SF-268 was > 100 µM (inactive) in each case. In addition, the GI50 in the assay on SF-295, in the assay with SK-MEL-2, with SK-OV-3, in the assay on SNB-19 and in the assay with SR was > 100 µM (inactive) each time.
Take `O=C1c2cnccc2Cc2cccc3c2N1c1ccccc1S3`: the GI50 with 786-0 was 28.1 µM (inactive); in the assay on CCRF-CEM, 27.5 µM (inactive); in the assay with DLD-1, 29.2 µM (inactive); in the assay with HCC 2998, 16.6 µM (inactive); in the assay with HOP-62, 20.9 µM (inactive); in the assay with K562, 20.8 µM (inactive). Besides, the GI50 in the assay on KM-20L2 is 17.6 µM (inactive); in the assay with KM12 it was 19.7 µM (inactive); with LOX IMVI it was 22.7 µM (inactive); in the assay with MOLT-4, 28.3 µM (inactive); with SF-268, 29 µM (inactive); in the assay with SF-295 it was 28.2 µM (inactive). In addition, the GI50 with SK-MEL-2 was 16.8 µM (inactive); in the assay on SNB-19, 30.9 µM (inactive); in the assay with SR, 12.4 µM (inactive).
Regarding `COc1cc(C2=NN(C)C(c3ccc([N+](=O)[O-])o3)C2)cc(OC)c1OC` (stereo unspecified), the GI50 in the assay on 786-0 was 23.1 µM (inactive); in the assay with CCRF-CEM, 22.2 µM (inactive); in the assay on DLD-1 it was 48.4 µM (inactive); in the assay on EKVX it was > 100 µM (inactive); in the assay with HCC 2998 it was > 100 µM (inactive); with HOP-62, > 100 µM (inactive). In addition, the GI50 was 52 µM (inactive) with K562; > 100 µM (inactive) with KM-20L2; > 100 µM (inactive) in the assay on KM12; 69 µM (inactive) in the assay on LOX IMVI; 24 µM (inactive) in the assay with MOLT-4; > 100 µM (inactive) in the assay on SF-268. Besides, the GI50 in the assay with SF-295 is > 100 µM (inactive); in the assay on SK-MEL-2, > 100 µM (inactive); with SK-OV-3, > 100 µM (inactive); with SNB-19 it was > 100 µM (inactive); in the assay with SR it was 0.0736 µM (active).
In the case of `CC(C)(C)c1nc2c(o1)/C(=N\c1ccccc1)c1ccccc1C2=O`, the GI50 with 786-0 was 24.4 µM (inactive); in the assay with CCRF-CEM, 5.61 µM (inactive); with DLD-1, 4.14 µM (inactive); in the assay on EKVX it was 13 µM (inactive); with HCC 2998 it was 18.6 µM (inactive); in the assay with HOP-62, 17.3 µM (inactive). Moreover, the GI50 in the assay with K562 was 3.55 µM (inactive); in the assay with KM-20L2, 27.8 µM (inactive); in the assay with KM12, 11.7 µM (inactive); in the assay with LOX IMVI, 0.603 µM (active); in the assay on MOLT-4 it was 3.95 µM (inactive); in the assay with SF-268, 3.55 µM (inactive). For the same compound, the GI50 was 3.99 µM (inactive) in the assay on SF-295; 2.53 µM (inactive) with SK-MEL-2; 34.5 µM (inactive) with SK-OV-3; 8.17 µM (inactive) in the assay with SNB-19; 3.94 µM (inactive) in the assay on SR.
With `Cc1cc(C)c(C(=O)O)c(N)c1O`, the GI50 in the assay with 786-0, in the assay with CCRF-CEM, in the assay on DLD-1, with EKVX, in the assay with HCC 2998 and with HOP-62 was > 100 µM (inactive) throughout. Besides, the GI50 in the assay on K562, with KM-20L2, with KM12, in the assay on LOX IMVI, in the assay with MOLT-4 and in the assay on SF-268 was > 100 µM (inactive) in each case. The GI50 in the assay with SF-295, in the assay on SK-MEL-2, in the assay with SK-OV-3, in the assay with SNB-19 and in the assay with SR was > 100 µM (inactive) in each case.
With `COc1cc(C(=O)N2CCc3c([nH]c4c([N+](=O)[O-])c(OC)ccc34)C2C)cc(OC)c1OC` (stereo unspecified), the GI50 in the assay on 786-0, in the assay on CCRF-CEM, in the assay on DLD-1, in the assay with EKVX, with HCC 2998 and in the assay on HOP-62 was > 100 µM (inactive) in each case. Further, the GI50 in the assay with K562 was > 100 µM (inactive); with KM-20L2, > 100 µM (inactive); in the assay on KM12, > 100 µM (inactive); in the assay with LOX IMVI, > 100 µM (inactive); in the assay with MOLT-4, > 100 µM (inactive); with SF-268, 29.8 µM (inactive). The GI50 in the assay with SF-295, in the assay with SK-MEL-2, in the assay on SNB-19 and in the assay on SR was > 100 µM (inactive) throughout.
Consider `Oc1cc(-c2cccs2)nc2cc3c(cc12)OCO3`, for which the GI50 in the assay on 786-0 was 3.78 µM (inactive); with CCRF-CEM it was 3.66 µM (inactive); with DLD-1 it was 5.13 µM (inactive); in the assay with EKVX, > 62.7 µM (inactive); in the assay with HCC 2998, 7.13 µM (inactive); with HOP-62, 3.96 µM (inactive). For the same compound, the GI50 with K562 was 2.42 µM (inactive); in the assay on KM-20L2, 15.9 µM (inactive); in the assay with KM12, 2.45 µM (inactive); with LOX IMVI, 4.92 µM (inactive); with MOLT-4 it was 4.52 µM (inactive); in the assay on SF-268 it was 6.43 µM (inactive). Further, the GI50 in the assay with SF-295 is 3.48 µM (inactive); in the assay on SK-MEL-2, 4.99 µM (inactive); in the assay on SK-OV-3, 2.7 µM (inactive); in the assay on SNB-19, 10.4 µM (inactive); in the assay with SR, 4.73 µM (inactive).
